# Values quoted from earlier work in US8362030B2, “Tricyclic derivatives as inhibitors of poly(ADP-ribose) polymerase (PARP)” (Istituto di Ricerche di Biologia Molecolare P. Angeletti …, priority 2008, dated 2013).
# Test system: ischemia and reperfusion of the heart
# Conditions: rabbits
Compound,reduction in infarct size (single injection 1 mg/kg),"reduction in infarct size in the heart (single injection 10 mg/kg, one minute before occlusion or before reperfusion)"
"Oc1cccc2c(O)nccc12 [1,5-dihydroxyisoquinoline]",38-48%,–
NC(=O)c1cccc(N)c1 [3-amino-benzamide],–,32-42%
